The values that follow come from PMC6021345 (Oncotarget, 2018).

Details of data set [1]: method as in printed. The settings on record: ref not given; cited from earlier work.
Details of data set [2]: method as in printed. The note with it: high dose loperamide; ref not given; cited from earlier work.
In data set [3] the test system is murine CT-26 tumor-bearing immuno-competent mice. The experiment in a line: CPT-11 induced diarrhea in CT-26 tumor-bearing mice. Type of data set: in vivo. The method, then: We tested the effect of Hst (20 and 100 mg/kg) on murine CT-26 tumor-bearing immuno-competent mice with CPT-11 (50 mg/kg, roughly equivalent to 5 mg/kg typical human CPT-11 dose) intraperitoneally injected daily from day 1-9. Hst was given from day 1-15 and 30 min before CPT-11 administration on day 1-9. Changes of stool character were recorded twice daily to determine the severity of diarrhea. Fecal staining of skin or lose watery stool was determined as diarrhea but not severe, and only the black sticky stool (bloody diarrhea) was determined as severe diarrhea.
CT-26 cell line was used to make the tumor bearing mouse model by s.c. injection of 0.02mL cells in PBS at 5×10^7 cells/mL into the posterior mid-dorsum. Tumor volumes were estimated by the formula π/6×a^2×b, where a is the short and b is the long axis. When tumor volume reached roughly 100mm^3 (~10 days after implantation, defined as day 1), mice were randomly separated into 5 groups, 1). CPT-11 only group, receiving CPT-11 50mg/kg + vehicle 2). CPT-11+Hst 20mg/kg, 3). CPT-11+Hst 100mg/kg, 4). Hst 100mg/kg only, and 5) vehicle control group. CPT-11 was administrated by i.p. injection from day 1 to day 9 while Hst were administrated by oral gavage from day 1 to the end of study. An equivalent dosage of saline or CMC were administrated by i.p injection and oral gavage as vehicle, respectively. Mice were examined daily for signs of diarrhea (fecal staining of skin, lose watery stool) and bloody diarrhea (black sticky stool), as well as tumor growth. After sacrifice, jejunum, ileum and colon samples were dissected. Tissues were formalin-fixed and paraffin embedded for histological examination using 4μm-thick, 100μm step serial sections stained with H&E. A histologic score to evaluate inflammation, epithelial changes and mucosa architecture for each slide was calculated as described previously. For immunohistochemical staining, sections were stained with antibodies against Ki67, β-catenin, F4/80, Ly-6B.2 and pSTAT3 (Tyr705) overnight at 4°C. Slides were then washed and stained with the appropriate secondary antibodies. Mounted slides were examined under Olympus BX61 upright microscopy (HMRI Advanced Cellular and Tissue Microscope Core Facility).

On the set-up of data set [4]: method as in PMID 10725311. The settings on record: after i.v. dosing radiolabeled drug; cited from earlier work.
Details of data set [5]: method as in printed. The settings on record: library annotation; ref not given; cited from earlier work.
The target of a further data set is T1, CES1 (Homo sapiens, UniProt P23141).
T1 construct: purchased Sigma-Aldrich E0162
T1 sequence (P23141 18-567): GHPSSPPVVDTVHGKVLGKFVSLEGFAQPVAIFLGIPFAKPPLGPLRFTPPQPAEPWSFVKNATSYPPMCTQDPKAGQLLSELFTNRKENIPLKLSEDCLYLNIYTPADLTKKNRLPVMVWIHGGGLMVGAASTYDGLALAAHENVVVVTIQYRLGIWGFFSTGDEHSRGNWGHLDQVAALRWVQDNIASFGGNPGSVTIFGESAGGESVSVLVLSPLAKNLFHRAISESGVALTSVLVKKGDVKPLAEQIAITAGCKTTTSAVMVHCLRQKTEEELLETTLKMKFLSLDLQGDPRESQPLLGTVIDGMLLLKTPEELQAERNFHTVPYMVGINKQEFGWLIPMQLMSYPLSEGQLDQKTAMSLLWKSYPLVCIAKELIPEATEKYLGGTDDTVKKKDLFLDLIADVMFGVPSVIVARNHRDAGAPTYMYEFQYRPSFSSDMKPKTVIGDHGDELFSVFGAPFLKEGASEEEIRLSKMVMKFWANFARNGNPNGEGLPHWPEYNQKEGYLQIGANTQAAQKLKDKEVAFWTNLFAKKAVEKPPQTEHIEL
The experiment in a line: In vitro CES1 enzyme-based assay (4-NPA substrate). The note with it: even at 300μM. Type of data set: biochemical. The method, then: (§1) The recombinant purified CES2 and CES1 enzymes, and 4-NPA were purchased from Sigma-Aldrich with product IDs E0412, E0162, and N8130, respectively. […] All compounds were dissolved in DMSO at 10mM. In the screening assay, the compounds were diluted in 50mM HEPES and the final compound concentration in the reaction system was adjusted to 50μM. […] The assays were conducted at 300μl total volume in 96-well plates. Reactions consisted of the following: 100μL 50mM HEPES with 20 units of enzyme, 10μL compound solution (various concentrations), 2μL 300mM 4-NAP, and 188μL 50mM HEPES, pH 7.4. The compound and 4-NAP solution were added into the plate first and then the reaction was initiated by the addition of enzyme solution. After 15 minutes incubation at 25°C, absorbance was measured using a microplate reader at 405nm in FLUOstar Omega Microplate Reader. The CES1/CES2 inhibitor compound bis-(4-nitrophenyl) phosphate (BNPP) was used as positive control in all the assays.

The target of a further data set is T2, CES2 (Homo sapiens, UniProt O00748).
T2 construct: purchased Sigma-Aldrich E0412
T2 sequence (O00748 27-559): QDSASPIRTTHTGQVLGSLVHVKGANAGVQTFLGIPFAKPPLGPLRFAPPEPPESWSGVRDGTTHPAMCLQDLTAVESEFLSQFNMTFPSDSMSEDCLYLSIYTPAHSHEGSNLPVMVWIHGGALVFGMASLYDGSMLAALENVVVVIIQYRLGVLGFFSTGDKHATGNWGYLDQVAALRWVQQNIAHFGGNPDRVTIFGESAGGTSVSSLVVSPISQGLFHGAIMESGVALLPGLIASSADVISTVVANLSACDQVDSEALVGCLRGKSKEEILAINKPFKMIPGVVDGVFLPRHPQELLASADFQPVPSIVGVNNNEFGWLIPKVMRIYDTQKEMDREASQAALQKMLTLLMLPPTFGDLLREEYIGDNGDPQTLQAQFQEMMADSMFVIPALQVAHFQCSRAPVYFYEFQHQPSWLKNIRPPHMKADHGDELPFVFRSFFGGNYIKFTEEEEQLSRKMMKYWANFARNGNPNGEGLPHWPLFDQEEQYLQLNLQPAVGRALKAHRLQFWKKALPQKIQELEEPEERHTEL
The experiment in a line: In vitro CES2 enzyme-based assay (4-NPA substrate). Type of data set: biochemical. The method, then:
as §1

A value given as a limit tells only on which side of the number the result lay.

Take `COc1ccc([C@@H]2CC(=O)c3c(O)cc(O[C@@H]4O[C@H](CO[C@@H]5O[C@@H](C)[C@H](O)[C@@H](O)[C@H]5O)[C@@H](O)[C@H](O)[C@H]4O)cc3O2)cc1O` [hesperidin]: in data set [1], the “fraction metabolized in cells to generate Hst” value is recorded as 99%.
In the case of `CN(C)C(=O)C(CCN1CCC(O)(c2ccc(Cl)cc2)CC1)(c1ccccc1)c1ccccc1` [loperamide], in data set [2], the “incidence of grade 3-4 diarrheas” value is listed as 28-40 % of treated patients.
As to `CCc1c2c(nc3ccc(OC(=O)N4CCC(N5CCCCC5)CC4)cc13)-c1cc3c(c(=O)n1C2)COC(=O)[C@]3(O)CC` [CPT-11, irinotecan], in data set [3] (CPT-11 only group, by day 12), the “mice that had to be euthanized” value is “all”. Also, in data set [3] (mouse, in vivo, 15 day), the “mice that developed some degree of diarrhea” value was found to be 100%. Moreover, in data set [4], the “fraction found unchanged in human bile” value is given as 30%.
`CC1(C)CCC2=C(O1)c1ccccc1C(=O)C2=O` [compound 1004, beta-Lapachone]: in data set [5], the solubility remark entry was “poorly soluble, anti-tumor at mM level, combination and radiosensitizing activity”.
Turning to `O=C(/C=C/c1ccccc1)c1ccc(O)cc1O` [2’, 4’-dihydroxychalcone], the CES1 inhibition result at CES1 is “no significant CES1 inhibition”. Besides, the “selectivity for CES2 (over CES1)” value at CES2 (CES2 vs CES1) is reported as above 100 fold. Also, on CES2 (recombinant CES2, 4-NPA, 15 min, 25°C), the IC50 came to 1660 ± 690 nM.
